# Assay results from ChEMBL document CHEMBL1127198, “Identification of antibody mimotopes containing non-natural amino acids by recombinant and synthetic peptide library affinity selection methods” (Bioorg Med Chem Lett, 1993).
# How the values were obtained:
# [1] = Binding inhibitory activity of compound was evaluated against bacteriophage anti-gp120 monoclonal antibody by competition ELISA assay
# [2] = Loss of affinity of compound was determined for bacteriophage anti-gp120 monoclonal antibody by competition ELISA assay; 10 fold loss in affinity was observed
# [3] = Loss of affinity of compound was determined for bacteriophage anti-gp120 monoclonal antibody by competition ELISA assay; 16 fold loss in affinity was observed
# [4] = Loss of affinity of compound was determined for bacteriophage anti-gp120 monoclonal antibody by competition ELISA assay; 3 fold loss in affinity was observed
Substance,IC50 [1] [µM],Loss of affinity [2],Loss of affinity [3],Loss of affinity [4]
H-EATRPM-OH,6.3,10,,
H-ESTRAM-OH,0.63,,,
H-ESTRPA-OH,10,,16,

# Further substances by falling IC50 [1], results first:
IC50 [1] [µM],Loss of affinity [2],Loss of affinity [3],Loss of affinity [4],Substance
10,,16,,H-ESTAPM-OH
6.3,10,,,H-ESARPM-OH
1.8,,,3,H-ASTRPM-OH
0.63,,,,H-ESTRPM-OH
